The assay deals with TGF-β. As to the kind of experiment: Effects on the extracellular matrix production by TGF-β (proteoglycan production in fibroblast). It is filed as cell-based. Particulars: Rattus norvegicus, NRK-49F cells, 3 ng/ml TGF-β, 24 h, [35S]-proteoglycan radioactivity, read-out: TGF-β inhibitory rate (%). As to the method: Effects on the Extracellular Matrix Production by TGF-β The effect of the compounds of Examples on the production of proteoglycan when TGF-β was added to fibroblast was evaluated. NRK-49F cells (rat fibroblast) were cultured in Dulbecco's Modified Eagle Medium (DMEM: manufactured by GIBCO) containing 10% bovine serum, and used in this experiment. The cells were put into a 96-well plate in an amount of 2.5×10^4 cells/100 μl/well. On the next day, the medium in the plate was exchanged to the DMEM medium containing 3 ng/ml of TGF-β (manufactured by Nacalai Tesque, Inc.), 0.5 μCi/well of [^35S]-Na2SO4, and a test compound. […] The gel after electrophoresis was dried with a gel drier, and exposed to an imaging plate, which was analyzed with […] (manufactured by Fuji Photo Film). The radioactivity of proteoglycan to be electrophoresed was measured, and the TGF-β inhibitory rate was calculated by the following equation. TGF-β Inhibitory rate (%)=(A−B)×100/(A−C) A: Radioactivity in the presence of TGF-β without a test compound B: Radioactivity in the presence of TGF-β and a test compound C: Radioactivity in the absence of TGF-β and a test compound The TGF-β inhibitory rates (%) of the test compound at concentrations of 3 μM and 10 μM are shown in Table 1.

Take `COC(=O)c1cc(Cl)ccc1/C=C/Cn1cccc1C(=O)c1ccc(O)cc1` [Example 103]: where the note is “test compound 3 μM”, the inhibition at 3 µM came out at 55%. Further, where the note is “test compound 10 μM”, the inhibition at 10 µM is 90%.

These data come from US6759429B2, “Pyrrole derivatives” (Sumitomo Pharmaceuticals Co., Ltd., priority 2000, dated 2004).
